± gives the expanded uncertainty stated by the source.
Columns and labels:
[1] = 298.15 K, 101 kPa, Liquid; for viscosity: Capillary tube (Ostwald / Ubbelohde) method; for mass density: Vibrating tube method
[2] = refractive index (Na D-line) (dimensionless); conditions: 298.15 K; 101.33 kPa; Liquid; Standard Abbe refractometry
[3] = xn = mol fraction of the nth substance listed; conditions: 298.15 K, 101 kPa, Liquid; for viscosity: Capillary tube (Ostwald / Ubbelohde) method; for mass density: Vibrating tube method
[4] = refractive index (Na D-line) (dimensionless); xn = mol fraction of the nth substance listed; conditions: 298.15 K, 101 kPa, Liquid, Standard Abbe refractometry

CCCCn1cc[n+](C)c1C.F[B-](F)(F)F [1-butyl-2,3-dimethylimidazolium tetrafluoroborate]
Conditions | mass density [kg/m3] | refractive index | viscosity [mPa·s]
[1] | 1191.2 ± 7.7 | – | 455.81 ± 29
[2] | – | 1.433 ± 0.002 | –

CCCCn1cc[n+](C)c1C.F[B-](F)(F)F [1-butyl-2,3-dimethylimidazolium tetrafluoroborate] + O
Conditions | mass density, [3] [kg/m3] | refractive index, [4] | viscosity, [3] [mPa·s]
x1 = 0.0085 | 1012.56 ± 0.095 | – | 1.06 ± 0.01
x1 = 0.0397 | 1053.33 ± 0.16 | 1.362 ± 0.002 | 1.83 ± 0.02
x1 = 0.1068 | 1100.33 ± 0.3 | 1.387 ± 0.002 | 3.96 ± 0.04
x1 = 0.1997 | 1132.18 ± 0.58 | 1.404 ± 0.002 | 7.34 ± 0.08
x1 = 0.2577 | 1144.22 ± 0.81 | 1.411 ± 0.002 | 10.07 ± 0.11
x1 = 0.3222 | 1154.04 ± 1.1 | 1.417 ± 0.002 | 12.62 ± 0.16
x1 = 0.4983 | – | 1.423 ± 0.002 | –
x1 = 0.7058 | 1182.14 ± 4 | 1.429 ± 0.002 | 94.63 ± 2.6
x1 = 0.7325 | 1183.22 ± 4.3 | 1.43 ± 0.002 | 104.97 ± 3.1
x1 = 0.8659 | 1187.78 ± 5.9 | 1.432 ± 0.002 | 214.82 ± 9.5
x1 = 1 | 1191.2 ± 7.7 | 1.433 ± 0.002 | 455.81 ± 29

CCCCn1cc[n+](C)c1.F[B-](F)(F)F [1-butyl-3-methylimidazolium tetrafluoroborate]
Conditions | mass density [kg/m3] | refractive index | viscosity [mPa·s]
[1] | 1200.3 ± 7.8 | – | 100.66 ± 3.3
[2] | – | 1.422 ± 0.002 | –

CCCCn1cc[n+](C)c1.F[B-](F)(F)F [1-butyl-3-methylimidazolium tetrafluoroborate] + O
Conditions | mass density, [3] [kg/m3] | refractive index, [4] | viscosity, [3] [mPa·s]
x1 = 0.036 | 1050.07 ± 0.15 | – | 1.51 ± 0.01
x1 = 0.044 | 1058.55 ± 0.17 | 1.36 ± 0.002 | 1.67 ± 0.02
x1 = 0.1267 | 1112.51 ± 0.36 | 1.384 ± 0.002 | 3.22 ± 0.03
x1 = 0.3134 | 1158.59 ± 1.1 | 1.405 ± 0.002 | 7.2 ± 0.09
x1 = 0.4984 | 1177.85 ± 2.2 | 1.412 ± 0.002 | 13.63 ± 0.22
x1 = 0.5802 | 1183.49 ± 2.9 | 1.415 ± 0.002 | 19.25 ± 0.34
x1 = 0.7488 | – | 1.418 ± 0.002 | –
x1 = 0.8089 | 1194.47 ± 5.3 | 1.419 ± 0.002 | 46.55 ± 1.1
x1 = 0.9719 | 1199.54 ± 7.4 | 1.421 ± 0.002 | 88.87 ± 2.7
x1 = 1 | 1200.3 ± 7.8 | 1.422 ± 0.002 | 100.66 ± 3.3

O [water] + CCCCn1cc[n+](C)c1.F[B-](F)(F)F
x2 = 0
Conditions | refractive index | viscosity [mPa·s]
[3] | – | 0.89 ± 0.01
[4] | 1.333 ± 0.002 | –

O [water] + CCCCn1cc[n+](C)c1C.F[B-](F)(F)F
x2 = 0
Conditions | refractive index | viscosity [mPa·s]
[3] | – | 0.89 ± 0.01
[4] | 1.333 ± 0.002 | –

— the NIST ThermoML archive (doi:10.1016/j.jct.2007.10.002)
